Tests used:
[1] = 58 μg/kg intravenously, dogs; cited from earlier work
[2] = topical administration of up to 20%, human eye; cited from earlier work
HUVECs [3] = assay: Matrigel endothelial cell capillary-tube formation assay; assay type: cell-based, human
Procedure: HUVECs were purchased from Cedarlane Laboratories (Burlington, Canada) and maintained in Endothelial Cell Basal Medium-2 (EBM-2) supplemented with EGM-2 growth factor mixture (Clonetics) and 2% Foetal bovine serum. The cells were cultured at 37° C. under a humidified 95%/5% (v/v) mixture of air and CO2.
Matrigel endothelial cell tube formation assays were performed using BD Matrigel™ (Becton, Dickinson). BD Matrigel™ was thawed at 4° C., and 150 μL were quickly added to each well of a 48-well plate and allowed to solidify for 60 min at 37° C. HUVECs (7×10^4 cells/mL) In EC basal medium-2 (EBM-2) were seeded 250 μL per well onto the surface of the solid BD Matrigel™ in the presence of the compounds to be tested. The cells were incubated for 22 h at […] in a 5% CO2 incubator. Tube formation was monitored by using a Leitz Labovert (Leitz, Wetzlar, Germany) inverted microscope. Two randomly selected two microscopic fields were photographed with a digital camera (Nikon, COOLPICKS 995). The total length of tube structures in each photograph was measured using ImageJ™ free software (http://rsb.info.nih.gov/ij/) and was normalized to that of control with no test compound. Each reported value represents the average of total six photographs from three independent experiments.

[4] = mouse, in vivo, iv; cited from earlier work
[5] = humans, cited from earlier work
[6] = Body weight of rats with eye drop treatment; assay type: in vivo, Sprague-Dawley rats
From the text: Prevention of diabetic retinopathy by (S)-isoproterenol […] drop was studied using a rat model. […] Animal weights were monitored every week.

[7] = Optical stability (racemization) in eye drop formulations, 10 days at 55° C., chiral HPLC; assay type: physicochemical; details: for % optical purity: 1.7 mg/mL, pH 6.0, starting material 99.90%
Procedure: The optical isomers of (S)-isoproterenol bitartrate and (S)-isoproterenol dipivalate hydrochloride were separated by HPLC using Shiseido chiral CD-Ph column (250×4.6 mm; 5 μm; isocratic 60:40 of 0.5 M sodium perchlorate/water and acetonitrile; flow rate, 1.0 mL/min). The elution profile was monitored by the absorption at 223 nm for isoproterenol bitartrate and 264 nm for isoproterenol dipivalate hydrochloride. The optical impurities were quantitated by the absorbance at 223 nm for isoproterenol bitartrate and 264 nm for isoproterenol dipivalate hydrochloride and by using a curve fitting software TABLECurve2D (Systat). The impurities of (R)-isoproterenol bitartrate and (R)-isoproterenol dipivalate hydrochloride were estimated as […], respectively. Thus, the racemization induced during synthesis and purification was minimal, if it occurred.
Table 2 describes the optical purities of (S)-isoproterenol and (S)-isoproterenol dipivalate after incubation in various eye drop formulations for 10 days at 55° C. and compared with those before incubation. The incubation for 10 days at 55° C. corresponds to the incubation for 167 days at 22° C.

[8] = Groups I vs II and III vs IV
Procedure: Two-month-old male Sprague-Dawley rats were purchased from Charles River, Canada. They were housed in the Biotechnology Research Institute (BRI)-animal facility. […] Diabetes was induced in male Sprague-Dawley rats weighing approximately 200 to 250 g by a single intraperitoneal injection of the beta-cell toxin, Streptozotocin (STZ) (Sigma, St. Louis, Mich.), at a dose of 60 mg/kg body weight in 0.1M citrate buffer pH 4.5. Non-diabetic control rats received citrate buffer only.
One week following induction of diabetes, glucose levels were determined in the blood sampled from the tail vein using a blood glucose monitoring system (Ascensia ELITE Blood Glucose Meter, Bayer Inc, Toronto, ON, Canada). Since the limit of detection of the blood glucose meter was 33 mM, any value above that has been assigned a maximum value of 35 mM. Only animals with blood glucose levels higher than 15 mM were retained in the study.
Eye drops or vehicle were administered twice a day, seven days a week, on the cornea of different groups of rats, with a minimum interval of 7 h between the two treatments. To promote weight gain and limit hyperglycemia, diabetic rats were injected sub-cutaneously with 2 IU ultralente insulin (Humulin, Eli Lilly, Toronto, ON, Canada) three times a week. Animal weights were monitored every week.

[9] = 17.6% eye drop, rabbit; cited from earlier work
[10] = large intravenous dose; cited from earlier work
HUVECs [11] = assay: Invasion of HUVECs through Matrigel-coated filter (Matrigel Invasion Chambers); assay type: cell-based, human
Procedure: HUVECs were purchased from Cedarlane Laboratories (Burlington, Canada) and maintained in Endothelial Cell Basal Medium-2 (EBM-2) supplemented with EGM-2 growth factor mixture (Clonetics) and 2% Foetal bovine serum. The cells were cultured at 37° C. under a humidified 95%/5% (v/v) mixture of air and CO2. Invasion of endothelial cells was measured using BD BioCoatTM Growth Factor Reduced MatrigelTM Invasion Chambers (Beckton-Dickinson; […]). EBM-2 medium (500 μL each) was placed into the lower wells. HUVECs (2.5×10^4) in EBM-2 serum-free medium (500 μL) were seeded into each of the upper wells and incubated in the presence of a test compound. HUVECs were allowed to migrate for 36 h at 37° C. in an atmosphere of 95% air/5% CO2. HUVECs that remained on the upper surface of the filter were removed using a cotton swab. HUVECs that had migrated to the lower surface of the filters were fixed with methanol, stained with 0.1% crystal violet/20% (v/v) methanol and examined using a Leitz Labovert (Leitz, Wetzlar, Germany) inverted microscope after mounting on a slide. Three randomly selected microscopic fields were digitally captured using a Nikon […] 995 digital camera and the number of HUVECs in each photograph were directly counted. Each reported value represents the average and standard deviation of a total […] from two independent experiments.

CC(C)NCC(O)c1ccc(OC(=O)C(C)(C)C)c(OC(=O)C(C)(C)C)c1 (racemic) [(R,S)-isoproterenol dipivalate]
cardiovascular responses [1]: the same responses as those of (R,S)-isoproterenol

CC(C)NC[C@@H](O)c1ccc(O)c(O)c1.Cl [(S)-isoproterenol hydrochloride]
lowering of intra-ocular pressure [2]: did not show any indication to lower intra-ocular pressure

CC(C)NC[C@@H](O)c1ccc(O)c(O)c1 [(S)-isoproterenol]
anti-angiogenic activity at 95% w/w optical purity (HUVECs [3]; 95% w/w optically pure, total isoproterenol 20 μM, FIG. 3): in the transition from non-antianglogenic to anti-angiogenic
potency (inhibition of capillary tube formation) (HUVECs [3]; angiogenic assay condition used in FIG. 1, 1-50 μM, 22 h): around 10 μM
Activity (anti-angiogenicity) (HUVECs [3]; measured at 20 μM, HUVECs on Matrigel, 22 h): anti-angiogenic activity
optical purity of (S)-isoproterenol at which anti-angiogenic activity was observed (HUVECs [3]; various ratios of (S)- and (R)-isoproterenol, total 20 μM, FIG. 3): at least 97 % w/w
LD50 [4]: 113 ± 5 mg/kg
side effects of topically applied 10% solution ([5]; 10%, topical): brief mild conjunctival hyperemia and irritation
side effects of 20% eye drop ([5]; 20% eye drop): marked conjunctival hyperemia and mild miosis that persisted for several hours
effect on weight gain/loss ([6]; diabetic rats, Group IV vs Group III): no effect
effect on weight gain/loss ([6]; non-diabetic rats, Group II vs Group I): no effect
conversion to the (R)-isoform ([7]; 10 days at 55° C.): 2.55%
% optical purity ([7]; 10 days at 55° C., NaCl 8 mg/mL, Benzalkonium chloride 0.04 mg/mL, Tween 80 2.5 mg/mL): 96.68%
% optical purity ([7]; 10 days at 55° C., Povidone 2 mg/mL, Benzalkonium chloride 0.04 mg/mL, D-Mannitol 54.7 mg/mL): 97.90%
% optical purity ([7]; 10 days at 55° C., Povidone 2 mg/mL, D-Mannitol 54.7 mg/mL, Chlorobutanol 1 mg/mL, 2-hydroxypropyl cyclodextrin 10.1 mg/mL): 97.56%
% optical purity ([7]; 10 days at 55° C., Povidone 2 mg/mL, NaCl 8 mg/mL, Benzalkonium chloride 0.04 mg/mL, 2-hydroxypropyl cyclodextrin 10.1 mg/mL): 97.26%
average optical purity after incubating 10 days at 55° C. ([7]; average over the eye drop formulations): 97.35±0.52%
optical purity after 655 days of storage at room temperature ([7]; extrapolated, from 99.90%): 90%
effect on the blood glucose level and diabetes [8]: does not affect
systemic effects (heart rate, blood pressure, hematologic or serum chemistry values, necropsy) [9]: no systemic effects
effects on blood pressure and pulse rate [10]: only slight and transient effects
reduction of the invasion of HUVECs in Matrigel (HUVECs [11]; 20 μM): 60%
Activity (anti-invasion) (HUVECs [11]; measured at 20 μM, HUVECs): Anti-invasive

Source: patent US9351947B2, “Use of catecholamines and related compounds as anti-angiogenic agents” (National Research Council of Canada, priority 2007, dated 2016)
